The values below come from patent US11912703B2, “6-azaindole compounds” (BRISTOL-MYERS SQUIBB COMPANY, priority 2017, dated 2024).

In one experiment the target is human TLR8 (Homo sapiens (Human), UniProt Q9NR97). As to the kind of experiment: TLR8 inhibition reporter assay (HEK-Blue SEAP).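 Also: SEAP driven by IFN-β minimal promoter with five NF-κB and AP-1 sites, compounds tested 0.05 nM to 50 µM, 22 h incubation, inhibition relative to agonist plus DMSO wells.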 To be noted: read-out: TLR8 IC50; HEK-Blue cells overexpressing human TLR8, R848 15.9 μM stimulation, SEAP reporter. (In general: In a reporter assay the amount or activity of a reporter protein is the signal.)
Chain of human TLR8 (Q9NR97 27-1041): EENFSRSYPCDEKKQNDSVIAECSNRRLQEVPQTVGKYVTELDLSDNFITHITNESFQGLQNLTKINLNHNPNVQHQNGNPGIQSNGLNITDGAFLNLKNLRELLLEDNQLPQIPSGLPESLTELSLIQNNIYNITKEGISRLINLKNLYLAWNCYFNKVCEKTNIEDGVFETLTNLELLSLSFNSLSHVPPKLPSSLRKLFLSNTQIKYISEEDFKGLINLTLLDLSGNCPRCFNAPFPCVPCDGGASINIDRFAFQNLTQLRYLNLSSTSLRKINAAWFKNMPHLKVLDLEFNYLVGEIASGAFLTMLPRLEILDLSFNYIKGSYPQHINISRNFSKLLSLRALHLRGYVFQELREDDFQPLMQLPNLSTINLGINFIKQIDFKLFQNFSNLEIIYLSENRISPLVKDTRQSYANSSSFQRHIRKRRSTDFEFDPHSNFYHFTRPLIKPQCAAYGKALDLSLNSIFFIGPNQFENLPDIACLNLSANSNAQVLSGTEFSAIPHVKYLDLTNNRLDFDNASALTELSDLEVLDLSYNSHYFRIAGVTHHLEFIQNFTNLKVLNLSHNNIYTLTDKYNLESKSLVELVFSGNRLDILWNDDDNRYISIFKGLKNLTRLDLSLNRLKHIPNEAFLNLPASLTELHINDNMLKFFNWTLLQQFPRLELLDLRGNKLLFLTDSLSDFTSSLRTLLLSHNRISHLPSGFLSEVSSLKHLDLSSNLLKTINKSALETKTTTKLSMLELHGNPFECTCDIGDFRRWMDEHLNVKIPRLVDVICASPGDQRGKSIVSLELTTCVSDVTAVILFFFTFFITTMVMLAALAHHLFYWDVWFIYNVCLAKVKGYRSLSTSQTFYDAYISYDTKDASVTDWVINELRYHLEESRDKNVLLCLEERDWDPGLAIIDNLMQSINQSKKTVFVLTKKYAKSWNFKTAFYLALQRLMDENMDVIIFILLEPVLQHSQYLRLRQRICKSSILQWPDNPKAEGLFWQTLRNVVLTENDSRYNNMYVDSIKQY
A further experiment concerns the target human TLR7 (Homo sapiens (Human), UniProt Q9NYK1). Description: TLR7 inhibition reporter assay (HEK-Blue SEAP). In kind it is cell-based. To be noted: HEK-Blue cells overexpressing human TLR7, gardiquimod 7.5 μM stimulation.
For the next experiment, the target named is human TLR9 (Homo sapiens (Human), UniProt Q9NR96). As to the kind of experiment: TLR9 inhibition reporter assay (HEK-Blue SEAP).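 Also: SEAP driven by IFN-β minimal promoter carrying five NF-κB and AP-1 sites, 22 h at 37 °C, compounds 0.05 nM–50 µM, inhibition scaled between agonist-plus-DMSO and reference-inhibitor wells.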 To be noted: read-out: TLR9 IC50; HEK-Blue cells overexpressing human TLR9, ODN2006 5 nM stimulation, SEAP reporter.
Chain of human TLR9 (Q9NR96 26-1032): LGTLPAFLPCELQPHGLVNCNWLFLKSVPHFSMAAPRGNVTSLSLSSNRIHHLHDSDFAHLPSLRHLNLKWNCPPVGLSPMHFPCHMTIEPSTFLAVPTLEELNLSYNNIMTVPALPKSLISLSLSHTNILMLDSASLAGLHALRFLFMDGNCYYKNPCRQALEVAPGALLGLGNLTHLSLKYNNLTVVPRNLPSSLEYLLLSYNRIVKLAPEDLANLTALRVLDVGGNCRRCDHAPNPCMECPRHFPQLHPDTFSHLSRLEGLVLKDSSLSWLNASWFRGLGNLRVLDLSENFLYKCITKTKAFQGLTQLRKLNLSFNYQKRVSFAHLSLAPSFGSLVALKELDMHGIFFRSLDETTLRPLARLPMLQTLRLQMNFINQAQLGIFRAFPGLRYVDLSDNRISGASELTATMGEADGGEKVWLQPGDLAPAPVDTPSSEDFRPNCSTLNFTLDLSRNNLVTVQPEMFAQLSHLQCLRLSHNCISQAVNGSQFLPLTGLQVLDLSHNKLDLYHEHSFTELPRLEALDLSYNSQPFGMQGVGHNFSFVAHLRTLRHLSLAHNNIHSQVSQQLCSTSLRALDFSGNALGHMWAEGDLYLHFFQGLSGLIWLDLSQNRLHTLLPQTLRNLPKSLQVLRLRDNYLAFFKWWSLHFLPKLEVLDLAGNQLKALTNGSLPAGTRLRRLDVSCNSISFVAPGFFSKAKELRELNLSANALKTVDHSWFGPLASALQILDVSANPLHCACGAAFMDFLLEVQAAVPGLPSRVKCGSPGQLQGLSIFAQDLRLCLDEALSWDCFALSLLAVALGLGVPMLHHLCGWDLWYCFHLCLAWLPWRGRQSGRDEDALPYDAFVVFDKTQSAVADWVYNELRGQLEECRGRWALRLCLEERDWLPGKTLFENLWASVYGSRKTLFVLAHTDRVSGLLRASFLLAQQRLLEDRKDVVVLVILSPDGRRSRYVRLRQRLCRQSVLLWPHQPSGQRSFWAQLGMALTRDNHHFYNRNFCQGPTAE

Each structure is given as a SMILES string.

For orientation: IC50 means the concentration needed to halve the response being measured.

Chain of human TLR7 (Q9NYK1 27-1049): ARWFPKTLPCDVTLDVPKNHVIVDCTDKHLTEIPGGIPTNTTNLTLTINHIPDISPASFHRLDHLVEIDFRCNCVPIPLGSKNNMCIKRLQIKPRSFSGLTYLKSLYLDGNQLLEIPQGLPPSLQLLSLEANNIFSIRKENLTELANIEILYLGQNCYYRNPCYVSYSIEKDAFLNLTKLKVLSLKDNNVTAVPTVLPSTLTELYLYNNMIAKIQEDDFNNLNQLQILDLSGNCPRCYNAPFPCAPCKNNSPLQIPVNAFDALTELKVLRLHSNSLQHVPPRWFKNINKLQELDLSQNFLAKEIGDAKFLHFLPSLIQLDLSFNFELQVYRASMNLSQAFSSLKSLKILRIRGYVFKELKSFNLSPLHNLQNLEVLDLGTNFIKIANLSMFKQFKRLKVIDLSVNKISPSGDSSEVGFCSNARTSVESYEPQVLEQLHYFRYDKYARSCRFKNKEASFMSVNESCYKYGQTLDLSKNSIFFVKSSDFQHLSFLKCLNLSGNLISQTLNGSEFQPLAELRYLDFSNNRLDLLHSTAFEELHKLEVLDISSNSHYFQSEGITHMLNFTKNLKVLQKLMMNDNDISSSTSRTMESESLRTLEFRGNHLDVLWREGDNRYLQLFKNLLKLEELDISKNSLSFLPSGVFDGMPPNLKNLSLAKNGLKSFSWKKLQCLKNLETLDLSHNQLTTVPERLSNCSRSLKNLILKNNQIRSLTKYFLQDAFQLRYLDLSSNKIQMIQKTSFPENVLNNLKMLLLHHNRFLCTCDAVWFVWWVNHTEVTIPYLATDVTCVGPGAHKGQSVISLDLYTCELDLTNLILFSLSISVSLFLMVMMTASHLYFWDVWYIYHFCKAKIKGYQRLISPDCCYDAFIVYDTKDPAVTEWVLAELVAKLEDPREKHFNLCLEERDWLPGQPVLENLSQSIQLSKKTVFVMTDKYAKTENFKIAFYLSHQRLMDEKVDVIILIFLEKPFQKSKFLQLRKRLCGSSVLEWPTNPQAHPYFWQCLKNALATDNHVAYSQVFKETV

For the compound `COc1cc(-c2[nH]c3cnc(N4CCC(NC56CC(C5)C6)CC4)c(C)c3c2C(C)C)cn2ncnc12` [Example 56], the IC50 at human TLR8 worked out at 1.5 nM; against human TLR7 it was 1.8 nM; at human TLR9, 1010 nM.
The corresponding values for `Cc1c(-c2[nH]c3cnc(C4CCC(N5CC6(COC6)C5)CC4)c(C)c3c2C(C)C)cn2ncnc2c1C` (stereo not drawn) [Example 57] are 19 nM, 4.9 nM and 682 nM.
The corresponding values for `Cc1c(-c2[nH]c3cnc(C4CCC(NCC(C)(C)C)CC4)c(C)c3c2C(C)C)cn2ncnc2c1C` (stereo not drawn) [Example 58] are 23 nM, 60 nM and 692 nM.
The corresponding values for `COc1cc(-c2[nH]c3cnc(C4CCC(NCC5(C)COC5)C4)cc3c2C(C)C)cn2ncnc12` (stereo not drawn) [Example 59] are 4.7 nM, 15 nM and 197 nM.
`COc1cc(-c2[nH]c3cnc(C4CCC(NCC(C)(C)C)C4)cc3c2C(C)C)cn2ncnc12` (stereo not drawn) [Example 60]: the IC50 came out at 1.2 nM at human TLR8, 5 nM on human TLR7 and 502 nM at human TLR9.
For `Cc1c(-c2[nH]c3cnc(C4CCC(NC(C)C)CC4)c(C)c3c2C(C)C)cn2ncnc2c1C` (stereo not drawn) [Example 61], the 50% inhibitory concentration (IC50) at human TLR8 turned out to be 35 nM; at human TLR7, 28 nM; at human TLR9 it was 346 nM.
The corresponding values for `COc1cc(-c2[nH]c3cnc(N4CCC(NC[C@@H](F)C(C)(C)O)CC4)c(C)c3c2C(C)C)cn2ncnc12` [Example 64] are 1.5 nM, 4.2 nM and 2790 nM.
As to `Cc1cc(-c2[nH]c3cnc(C4CCN(C(=O)CN(C)C)CC4)c(F)c3c2C(C)C)cn2ncnc12` [Example 65], the IC50 at human TLR8 was determined as 5.6 nM; against human TLR7 it was 2.2 nM; on human TLR9, 3320 nM.
In the case of `Cc1cc(-c2[nH]c3cnc(C4CCN(C(=O)CN(C)C)CC4)c(F)c3c2C(C)C)cn2ncnc12` [Example 66], the IC50 on human TLR8 was 4.9 nM; against human TLR7 it was 2.1 nM; at human TLR9 it was 3620 nM.
The corresponding values for `COc1cc(-c2[nH]c3cnc(N4CCC(NCC5(C)COC5)CC4)c(F)c3c2C(C)C)cn2ncnc12` [Example 67] are 11 nM, 9.1 nM and 5800 nM.
The corresponding values for `CCN(C)C1CCN(c2ncc3[nH]c(-c4cc(C)c5ncnn5c4)c(C(C)C)c3c2F)CC1` [Example 69] are 0.55 nM, 0.55 nM and 4050 nM.
The corresponding values for `Cc1cc(-c2[nH]c3cnc(N4CCC(N5CCC5)CC4)c(F)c3c2C(C)C)cn2ncnc12` [Example 70] are 0.78 nM, 0.23 nM and 4000 nM.
Turning to `CNC1CCN(c2ncc3[nH]c(-c4cc(C)c5ncnn5c4)c(C(C)C)c3c2F)CC1` [Example 71], the IC50 on human TLR8 worked out at 0.65 nM; against human TLR7, 0.41 nM; on human TLR9 it was 3610 nM.
The corresponding values for `COc1cc(-c2[nH]c3cnc(N4CCC(N(C)CC(=O)N(C)C)CC4)c(F)c3c2C(C)C)cn2ncnc12` [Example 72] are 1.3 nM, 1.5 nM and 6080 nM.
The corresponding values for `COc1cc(-c2[nH]c3cnc(C4CCC(NC(C)C)CC4)c(F)c3c2C(C)C)cn2ncnc12` (stereo not drawn) [Example 73] are 0.77 nM, 0.87 nM and 2960 nM.
In the case of `COc1cc(-c2[nH]c3cnc(C4CCC(N5CCC5)CC4)c(F)c3c2C(C)C)cn2ncnc12` (stereo not drawn) [Example 75], the IC50 at human TLR8 was 5.6 nM; at human TLR7, 2.5 nM; on human TLR9 it was 447 nM.
Regarding `COc1cc(-c2[nH]c3cnc(C4CCC(N(C)C(C)C)CC4)c(F)c3c2C(C)C)cn2ncnc12` (stereo not drawn) [Example 76], the IC50 worked out at 3.8 nM at human TLR8, 0.58 nM at human TLR7 and 959 nM at human TLR9.
On to `CCN(C)C1CCC(c2ncc3[nH]c(-c4cc(OC)c5ncnn5c4)c(C(C)C)c3c2F)CC1` (stereo not drawn) [Example 77], for which the 50% inhibitory concentration (IC50) on human TLR8 was 4.5 nM; at human TLR7, 2.7 nM; on human TLR9 it was 403 nM.
The corresponding values for `COc1cc(-c2[nH]c3cnc(C4CCC(N(C)CC(N)=O)CC4)c(F)c3c2C(C)C)cn2ncnc12` (stereo not drawn) [Example 78] are 11 nM, 4.3 nM and 8620 nM.
For the compound `COc1cc(-c2[nH]c3cnc(C4CCC(N(C)CC(=O)N(C)C)CC4)c(F)c3c2C(C)C)cn2ncnc12` (stereo not drawn) [Example 79], the half-inhibitory concentration (IC50) on human TLR8 was 3.6 nM; at human TLR7, 3 nM; at human TLR9, 842 nM.
The corresponding values for `Cc1cc(-c2[nH]c3cnc(C4CCC(NC5COC5)CC4)c(F)c3c2C(C)C)cn2ncnc12` (stereo not drawn) [Example 80] are 0.6 nM, 0.16 nM and 1830 nM.
The corresponding values for `Cc1cc(-c2[nH]c3cnc(C4CCC(NC5(C)COC5)CC4)c(F)c3c2C(C)C)cn2ncnc12` (stereo not drawn) [Example 81] are 0.61 nM, 0.15 nM and 2170 nM.
The corresponding values for `Cc1cc(-c2[nH]c3cnc(C4CCC(NC5CCOCC5)CC4)c(F)c3c2C(C)C)cn2ncnc12` (stereo not drawn) [Example 82] are 0.36 nM, 0.18 nM and 1460 nM.
Consider `CCN(C)C1CCN(c2ncc3[nH]c(-c4cn5ncnc5c(C)c4C)c(C(C)C)c3c2F)CC1` [Example 83], for which the IC50 at human TLR8 stood at 1.4 nM; against human TLR7, 1.3 nM; on human TLR9, 9100 nM.
As for `Cc1c(-c2[nH]c3cnc(C4CCC(NC(C)C)CC4)c(F)c3c2C(C)C)cn2ncnc2c1C` (stereo not drawn) [Example 85], the 50% inhibitory concentration (IC50) was 1.1 nM at human TLR8, 2.6 nM at human TLR7 and 924 nM at human TLR9.
The corresponding values for `COc1cc(-c2[nH]c3cnc(N4CCC(N(C)C(C)C)CC4)c(C)c3c2C(C)C)cn2ncnc12` [Example 86] are 0.43 nM, 0.37 nM and 1130 nM.
For the compound `COc1cc(-c2[nH]c3cnc(N4CCC(N5CCC5)CC4)c(C)c3c2C(C)C)cn2ncnc12` [Example 87], the IC50 on human TLR8 was found to be 1 nM; on human TLR7 it was 0.33 nM; at human TLR9, 701 nM.
The corresponding values for `Cc1c(-c2[nH]c3cnc(N4CCC(NCC(C)(C)O)CC4)c(C)c3c2C(C)C)cn2ncnc2c1C` [Example 88] are 0.28 nM, 0.62 nM and 322 nM.
The corresponding values for `COc1cc(-c2[nH]c3cnc(C4CCC(NC[C@@H](F)C(C)(C)O)CC4)c(C)c3c2C(C)C)cn2ncnc12` (stereo partly drawn) [Example 89] are 4.9 nM, 6.5 nM and 435 nM.
On to `Cc1c(-c2[nH]c3cnc(C4CCC(NC5COC5)CC4)c(C)c3c2C(C)C)cn2ncnc2c1C` (stereo not drawn) [Example 91], for which the IC50 at human TLR8 is 27 nM; on human TLR7 it was 40 nM; at human TLR9, 676 nM.
The corresponding values for `Cc1c(-c2[nH]c3cnc(C4CCC(NCC(C)(C)O)CC4)c(C)c3c2C(C)C)cn2ncnc2c1C` (stereo not drawn) [Example 92] are 32 nM, 34 nM and 548 nM.
`COc1cc(-c2[nH]c3cnc(C4CCC(NC5COC5)C4)cc3c2C(C)C)cn2ncnc12` (stereo not drawn) [Example 93]: the IC50 is 37 nM on human TLR8, 18 nM on human TLR7 and 2830 nM at human TLR9.
